Experimental data reported in patent EP1785722A1, “Microbial, viral and mammalian susceptibility to agents that affect cell growth and metabolism, and compatibility of compounds” (Stratos Bio Ltd., priority 2005, dated 2007).

Columns and labels:
E. coli = test: MIC / MBC against E. coli; format: cell-based
respiring E.coli = test: Microcalorimetry of respiring E. coli in glucose buffer; format: cell-based
Protocol: E.coli was suspended in 10% DMSO prior to freezing and the viable counts were for batch 1: pre-freeze: 4.0 ± 0.6_ x 10^10 cfu/ml and post -freeze 2.0 ± 0.44 x 10^10 cfu/ml and for batch 2: pre-freeze: 3.45 ± 0.58 x 10^10 cfu/ml and post-freeze 2.93 ± 0.43 x 10^10 cfu/ml. The freezing rate for both batches was 20°C/min the survival rate was 50% for batch 1 and 85% for batch 2. These differences may have been due to batch 1 being kept for 24h at 4°C before being frozen.
The respiration experiments were carried out in glucose buffer at different pH. The respiration curves obtained from batch 1 (inoculum 2 x 10^10 cfu/ml) and batch 2 Inoculum 3.2 x 10^10 cfu/ml) were essentially similar and a mean was used as a reference). The respiration experiments were carried out at pH 7 for polymyxin and Znbacitracin and at pH 8 for neomycin. No differences in p-t control curves could be observed at pH 7 or pH 8.
The p-t curves rose and reached a plateau as has been observed for respiration of yeasts and some 20 min later fell to a lower plateau value. Prior incubation of the cells in the buffered glucose for periods up to 20 min before presentation to the calorimeter could reduce or entirely remove this effect.

Micrococcus flavus [1] = test: Flow microcalorimetry (p-t curves) of growing Micrococcus flavus; format: cell-based; details: single antibiotic at its MIC (4 ug/ml Neo; 2ug/ml POLB)
Description: (§1) • a) For B. pumilus a simple glucose/salts medium was employed with a glucose concentration of 0.1 % w/v. • b) For Bord. bronch. The above salts medium was used with the addition of nicotinic acid, methionine and glutamic acid. Glutamic acid was used at a concentration of 0.2% w/v. • c) For M. flavus a semidefined medium was employed, using the same salts as a B. pumilus but also Na-citrate, biotin and protease peptone. In the calorimeter a concentration of 0.4% protease peptone was used. All medium constituents (except protease) were analytical reagents. The calorimetric medium was therefore a final concentration of 100ml of either solution a, b or c freshly autoclaved for 15 mins exactly at 121°C, 151b/sq inch. Glucose was added to the appropriate solution after autoclaving.
(§2) To the vertical face of the vessel close to its base, equidistantly spaced around the circumference, ports were fitted for an oxygen electrode and for sampling/inoculation. The fermenter was closed with a flat flanged glass lid which had five ports accommodating respectively, gas inlet tube, gas exhaust (via air condenser), inlet and outlet flow-lines to and from the calorimeter. The fermenter and lid was sealed with a p.t.f.e. gasket and clamped with a metal clip. The fermenter was placed on a magnetic stirring unit in a water jacket which allowed circulation of the thermostatically controlled water at 30°C or 37°C. The fermenter which contained a Teflon coated magnetic stirring bar, was sterilised by autoclaving.
(§3) For a typical calorimetric incubation the medium was passed through the calorimetric vessel at the same flow rate and temperature as those used in the experiment to establish a steady baseline deflection. The following operations then took place to a strict timetable. The liquid nitrogen stored ampoule was thawed at 38°C for 3 min and then stirred for 20 sec on a whirlimixer. The bacterial suspension (0.5-1.5ml) volumes was inoculated into the medium (100ml) two minutes after completion of thawing. A Gilson automatic pipette was used for inoculation. The calorimeter inlet flow-line was placed in the incubation medium 30 seconds after inoculation. The flowing incubation medium reached the calorimetric vessel two min after inlet flow-line insertion. At this time the recording of the p-t curves was started. Eight min after inoculation the outflow from the calorimeter was returned to the fermenter (after the "baseline" medium had run to waste but before the inoculated medium ran to waste) thus making a closed system. Aeration was started as soon as the inlet tube was inserted in the fermenter. Microbiological purity of the culture was checked by plating out a sample of the culture at the end of each incubation on nutrient agar (lab M).
(§4) The output of calorimetric experiments is a plot of power (energy evolution per unit of time) as a function of time. The unit of power (p) is the Watt (W) and the unit of time is the hour (h). In some experiments seconds (s) were used as time unit.
This point occurred at an increase in deflection of 29.5% from the baseline value.

[2] = test system: Bordetella Bronchiseptica; test: MIC / MBC against Bordetella bronchiseptica; format: cell-based; details: as printed in table heads
Micrococcus flavus [3] = test: MIC / MBC against Micrococcus flavus; format: cell-based; details: as printed in table heads
Bacillus pumilus = test: Flow microcalorimetry (p-t curves) of growing Bacillus pumilus; format: cell-based
Description: as §1, §2, §3, §4
(§5) However when the concentration of organisms was 5.1 x 10^6 cfu/ml which was the inoculum used in the microcalorimetric incubations the MIC was increased to 2 µg/ml; the effect was also bacteriostatic.

B. pumilus = test: MIC determination against B. pumilus; format: cell-based, Bacillus pumilus
Protocol: as §5

[4] = test system: Bordetella Bronchiseptica; test: Flow microcalorimetry (p-t curves) of growing Bordetella bronchiseptica; format: cell-based; details: single antibiotic at its MIC (0.25ug/ml Neo; 100ug/ml ZNB), added at 50 % of p-t curve
Description: as §1, §2, §3, §4
After successful freezing of Bord. bronch p-t curves for growth in different concentrations of glutamic acid from 0.1%-0.5% were obtained. It was concluded that a medium containing 0.2% glutamic acid would be sufficient for a good deflection in the microcalorimeter minimising the possibility of the bacteria clogging in the microcalorimetric cell or in the teflon tubes leading to and from the microcalorimetric cell. A pH of 7 was used in all the following experiments as this is the optimum pH for polymyxin - lipid binding.
It was of vital importance to maintain a constant oxygen tension; this was achieved by using saturation concentrations of oxygen. It was decided to use the height of the small peak as full scale deflection for the antibiotic assay as the increase in power was exponential up to this point and the peak occurred at a convenient time. This choice of assay point was empirical. The inoculum was 1.1 ± 0.06 x 10^8 cfu/ml for all the microclalorimetric incubations. […]

[5] = 0.25 ug/ml added at 0 % of p-t curve

NC[C@@H]1O[C@H](O[C@H]2[C@@H](O)[C@H](O[C@@H]3[C@@H](O)[C@H](N)C[C@H](N)[C@H]3O[C@H]3O[C@H](CN)[C@@H](O)[C@H](O)[C@H]3N)O[C@@H]2CO)[C@H](N)[C@@H](O)[C@@H]1O.O=S(=O)(O)O [neomycin sulphate, Neomycin sulphate]
MBC (E. coli; as printed in table head): 5900 µg/mL
MIC (E. coli; as printed in table head): 5900 µg/mL
MIC (E. coli; text): 500 µg/mL
effect on power (respiring E.coli; Fig. 16): an increase in power
Comments (respiring E.coli; NEO 500 ug/ml): Consistent with increased rate of RNA synthesis
Observed effect on p-t curves (respiring E.coli; NEO 500 ug/ml, pH 8): Increase in heat output
heat output (respiring E.coli; all concentrations): increased heat output
Linear dose-response between (respiring E.coli; table): 10 to 100 µg/mL
linear relationship between dose and the reciprocal of increase in response from the control curve (respiring E.coli; text): 20 to 100 µg/mL
Observed effect on p-t curves (Micrococcus flavus [1]): No effect on p-t curve
MIC [2]: 0.25 µg/mL
MIC (Micrococcus flavus [3]): 4 µg/mL
Comments (Bacillus pumilus; [5]): No effect
Observed effect on p-t curves Related to standard growth curve (Bacillus pumilus; [5]): 1X standard curve
Comments (Bacillus pumilus; 0.5 ug/ml added at 0 % of p-t curve): Inhibition of RNA synthesis
Comments (Bacillus pumilus; 1 ug/ml added at 10 % of p-t curve): Growth promoting effect potential stimulation of RNA synthesis
Observed effect on p-t curves Related to standard growth curve (Bacillus pumilus; 1 ug/ml added at 10 % of p-t curve, at 11 h): 1.2 X signal at 11 h
Comments (Bacillus pumilus; 1 ug/ml added at 15 % of p-t curve): Growth promoting effect potential stimulation of RNA synthesis
Observed effect on p-t curves Related to standard growth curve (Bacillus pumilus; 1 ug/ml added at 15 % of p-t curve, at 11 h): 1.2 X signal at 11 h
Comments (Bacillus pumilus; 1 ug/ml added at 25 % of p-t curve): Growth promoting effect potential stimulation of RNA synthesis
Observed effect on p-t curves Related to standard growth curve (Bacillus pumilus; 1 ug/ml added at 25 % of p-t curve, at 11 h): 5X signal at 11 h
Comments (Bacillus pumilus; 2 ug/ml added at 10 % of p-t curve): Growth promoting effect potential stimulation of RNA synthesis
Observed effect on p-t curves Related to standard growth curve (Bacillus pumilus; 2 ug/ml added at 10 % of p-t curve, at 11 h): 1.2 Xsignal at 11 h
power output (Bacillus pumilus; 0.5 and 1 x MIC (1-2 µg/ml) added after an increase of 10% of full scale deflection): the same effect was observed
power output (Bacillus pumilus; 0.5 x MIC (1µg/ml) added after a 25% increase power output): massive power output 2-4h after addition
Comments (Bacillus pumilus; > 2 ug/ml added at 10 % of p-t curve): Inhibition of RNA synthesis Possible to achieve linear dose-response at 7 hours after addition of antibiotic to the bacterial culture, after 11 hours heat-out put levels off b ut do not return to baseline indicating a bacteriostatic effect and maximum inhibition of RNA synthesis
Observed effect on p-t curves Related to standard growth curve (Bacillus pumilus; > 2 ug/ml added at 10 % of p-t curve, at 11 h): 0.75 or less at 11 h
power output (Bacillus pumilus; added after an increase in power output of 15% of full scale deflection): only marginally larger than that observed for the normal growth curve
power output (Bacillus pumilus; higher concentrations of antibiotic): a decrease in power output was observed
concentrations at which an increased heat output can be observed (Bacillus pumilus; organism not given): < 1 µg/mL
effect at MIC (B. pumilus; 5.1 x 10^6 cfu/ml): bacteriostatic
MIC (B. pumilus; 5.1 x 10^6 cfu/ml, inoculum used in the microcalorimetric incubations): 2 µg/mL
MIC (B. pumilus; inoculum of 1x10^5 cfu/ml): 0.1 µg/mL
effect at MIC (B. pumilus; inoculum of 1x10^5 cfu/ml): bacteriostatic
MIC (B. pumilus; listed as NEO): 1 µg/mL
Observed effect on p-t curves [4]: No effect on p-t curve
